# Laboratory results published in a flash point compilation (Sun et al. 2020).
row,Structure (SMILES),flash point
1,C=CCCCCC(C)C [7-methyl-1-octene],18 °C
2,CC/C=C/CCC [trans-3-heptene],-6 °C
3,C=CCC(C)CC (stereo not drawn) [4-methyl-1-hexene],-15 °C
4,CCCCCCCCCc1ccccc1 [n-nonylbenzene],117 °C

# Remark: another data set of the same source
row,Structure (SMILES),flash point
1,Cc1ccccc1 [Toluene],6.0 °C
2,CCCCCCCC(=O)O [Octanoic acid],127.0 °C
3,"CNc1ccccc1 [Benzenamine, N-methyl-]",78 °C
4,CC(C)CO [2-Methyl-1-propanol],29.2 °C
5,"CCCCC(CC)CC [Heptane, 3-ethyl-]",23.0 °C
6,CCN(CC)CC [TRIETHYLAMINE],-15.0 °C
7,Nc1ccccc1 [Aniline],71.0 °C
8,CCCCCC(C)=O [2-Heptanone],39.0 °C
9,"C=CC(C)(C)C [1-Butene, 3,3-dimethyl-]",-31.9 °C
10,"CN(C)c1ccccc1 [N,N-DIMETHYLANILINE]",62.0 °C
11,"CCCCC(C)CCC (stereo not drawn) [Octane, 4-methyl-]",23.0 °C
12,"CCC(C)(C)C(=O)O [2,2-Dimethylbutyric acid]",79.0 °C
13,CCCCCCCCCCCO [1-UNDECANOL],115 °C
14,"CC(C)C(C)O (stereo not drawn) [2-Butanol, 3-methyl-]",26.0 °C
15,CCc1cccc(C)c1 [m-Ethyltoluene],38.0 °C
16,CCCS [1-Propanethiol],-19.9 °C
17,CCCCCCCCCC(=O)O [Decanoic acid],148.0 °C
18,"Cc1ccncc1 [Pyridine, 4-methyl-]",39.0 °C
19,C=CCCC [1-PENTENE],-54 °C
20,CCCCCCN [1-Hexanamine],27.0 °C
21,"Cc1cccc(C)c1O [2,6-Dimethylphenol]",85.0 °C
22,CCCCC(C)O (stereo not drawn) [2-HEXANOL],46.2 °C
23,CCCCC(CC)CO (stereo not drawn) [2-Ethylhexanol],73 °C
24,CCCCCCCCCCCCO [1-DODECANOL],125 °C
25,"COCCO [Ethanol, 2-methoxy-]",39.0 °C
26,CCCCCCCCCO [1-NONANOL],95 °C
27,"C=CC(C)CC (stereo not drawn) [1-Pentene, 3-methyl-]",-27.9 °C

# Remark: another data set of the same source
row,Structure (SMILES),flash point
1,Cc1ccccc1 [Toluene],4.40 °C
2,CCCCCCCC(=O)O [Octanoic acid],132.00 °C
3,Nc1ccccc1 [Aniline],70.00 °C

# Remark: another data set of the same source
row,Structure (SMILES),flash point
1,[SiH3]c1ccccc1 [Phenylsilane],8.00 °C
2,C#CCO[Si](C)(C)C [Propargyloxytrimethylsilane],27.00 °C
3,C[Si](C)(C)c1ccc(Cl)cc1 [p-Chlorophenyltrimethylsilane],49.00 °C
4,CCCO[Si](C)(C)C [Trimethyl-n-propoxysilane],10.00 °C
5,C=C[Si](OC)(OC)OC [Vinyltrimethoxysilane],23.00 °C
6,CC(CCl)C[Si](C)(Cl)Cl (stereo not drawn) [3-Chloro-2-methylpropylmethyldichlorosilane],90.00 °C
7,CCCCCCCC[Si](Cl)(Cl)Cl [n-Octyltrichlorosilane],96.00 °C
8,"C=CC=CC[Si](C)(C)C [(2,4-Pentadienyl)trimethylsilane]",18.00 °C
9,C[Si](C)(C)C1C=CC=C1 [Cyclopentadienyltrimethylsilane],29.00 °C
10,C[Si](C)(Cl)CCl [Chloromethyldimethylchlorosilane],22.00 °C
11,C[Si](C)(C)O[Si](C)(C)O[Si](C)(C)O[Si](C)(C)O[Si](C)(C)C [Dodecamethylpentasiloxane],79.00 °C
12,CO[Si](C)(C)OC [Dimethyldimethoxysilane],-8.00 °C
13,CCC[Si](O[SiH](C)C)(O[SiH](C)C)O[SiH](C)C [Propyltris(dimethylsiloxy)silane],50.00 °C
14,CCCCCC[Si](Cl)(Cl)Cl [n-Hexyltrichlorosilane],85.00 °C
15,CCCCCCCCCCCC[Si](C)(Cl)Cl [n-Dodecylmethyldichlorosilane],143.00 °C
16,C[Si]1(C)O[Si](C)(C)O[Si](C)(C)O[Si](C)(C)O[Si](C)(C)O1 [Decamethylcyclopentasiloxane],77.00 °C
17,C[Si](C)(C)F [Trimethylfluorosilane],-35.00 °C
18,CCCCCCCCCC[Si](C)(Cl)Cl [n-Decylmethyldichlorosilane],120.00 °C
19,"C[Si](C)(Cl)CCC(F)(F)F [Chlorodimethyl(3,3,3-trifluoropropyl) silane]",20.00 °C
20,C[SiH](C)O[Si](O[SiH](C)C)(O[SiH](C)C)O[SiH](C)C [Tetrakisdimethylsiloxysilane],67.00 °C
21,CCCCC=C[Si](Cl)(Cl)Cl [1-Hexenyltrichlorosilane],60.00 °C
22,CCO[Si](CC)(CC)OCC [Diethyldiethoxysilane],43.00 °C
23,CC(C)C[Si](Cl)(Cl)Cl [Isobutyltrichlorosilane],37.00 °C

row,Structure (SMILES),flash point
1,C[Si]1(C)O[Si](C)(C)O[Si](C)(C)O1 [Hexamethylcyclotrisiloxane],32.00 °C
2,Cl[Si](Cl)(Cl)C1CCCCC1 [Cyclohexyltrichlorosilane],85.00 °C
3,ClC[Si](Cl)(Cl)Cl [Trichloro(Chloromethyl) silane],69.00 °C
4,CCO[Si](C)(OCC)OCC [Methyltriethoxysilane],24.00 °C
5,C[Si]1(C)N[Si](C)(C)N[Si](C)(C)N[Si](C)(C)N1 [Octamethylcyclotetrasilazane],66.00 °C
6,C=C[Si](OCCOC)(OCCOC)OCCOC [Vinyltris(methoxyethoxy)silane],80.00 °C
7,CO[Si](OC)(OC)c1ccccc1 [Phenyltrimethoxysilane],85.00 °C
8,"CO[Si](CCC1CCC2OC2C1)(OC)OC (stereo not drawn) [2-(3,4-epoxycyclohexyl)ethyltrimethoxysilane]",146.00 °C
9,CCCCCC[Si](C)(Cl)Cl [n-Hexylmethyldichlorosilane],85.00 °C
10,CC[Si](C)(C)Cl [Ethyldimethylchlorosilane],-4.00 °C
11,O=C=N[Si](N=C=O)(N=C=O)N=C=O [Tetraisocyanatosilane],50.00 °C
12,CCCCCCCCCCCCCCCC[Si](Cl)(Cl)Cl [Hexadecyltrichlorosilane],154.00 °C
13,CC[SiH3] [Ethylsilane],-60.00 °C
14,C=CO[Si](C)(C)C [Trimethyl(vinyloxy)silane],-10.00 °C
15,CCCCCCCCCCCC[Si](Cl)(Cl)Cl [n-Dodecyltrichlorosilane],162.00 °C
16,CCCCCCCC[Si](C)(C)Cl [n-Octyldimethylchlorosilane],97.00 °C
17,CCN(CC)[Si](C)(C)C [(Diethylamino)trimethylsilane],10.00 °C
18,C[SiH](C)C(C)(C)C [t-Butyldimethylsilane],-22.00 °C
19,C=C(C)C(=O)OCCC[Si](OC)(OC)OC [3-Methacryloxypropyltrimethoxysilane],92.00 °C
20,C[SiH](C)c1ccccc1 [Phenyldimethylsilane],38.00 °C
21,CO[Si](C)(CCCCl)OC [3-Chloropropylmethyldimethoxysilane],45.00 °C
22,CC[SiH](CC)CC [Triethylsilane],-3.00 °C
23,CCCCCC#C[Si](C)(C)C [1-Heptynyltrimethylsilane],42.00 °C

row,Structure (SMILES),flash point
1,CC(C)(C)O[Si](C)(C)C [t-Butoxytrimethylsilane],14.00 °C
2,N#CCCC[Si](Cl)(Cl)Cl [Trichloro(3-cyanopropyl) Silane],92.00 °C
3,C[Si](C)(C)Cc1ccccc1 [Benzyltrimethylsilane],62.00 °C
4,C=C[Si](C)(C)O[Si](C)(C)C [Vinylpentamethyldisiloxane],12.00 °C
5,CCCCCCCC[Si](OCC)(OCC)OCC [Octyltriethoxysilane],100.00 °C
6,CCC[SiH](CCC)CCC [Tri-n-propylsilane],43.00 °C
7,C[Si](C)(C)S[Si](C)(C)C [Hexamethyldisilthiane],26.00 °C
8,C[Si](C)(C)N1CCOCC1 [N-(Trimethylsilyl)morpholine],27.00 °C
9,CC(C)(C)[Si](C)(C)O [t-Butyldimethylsilanol],45.00 °C
10,CC(C)(C)[Si](C)(C)Cl [t-Butyldimethylchlorosilane],22.00 °C
11,C[SiH](C)O[Si](C)(C)C [Pentamethyldisiloxane],-19.00 °C
12,C[Si](C)(C)N[Si](C)(C)C [Hexamethyldisilazane],8.00 °C
13,CCC[Si](C)(Cl)Cl [n-Propylmethyldichlorosilane],27.00 °C
14,Cl[Si](Cl)(c1ccccc1)c1ccccc1 [Diphenyldichlorosilane],142.00 °C
15,"C=CC=CO[Si](C)(C)C [1-(Trimethylsiloxy)-1,3-butadiene]",25.00 °C
16,c1ccc([SiH2]c2ccccc2)cc1 [Diphenylsilane],98.00 °C
17,Cl[Si](Cl)(Cl)CCc1ccccc1 [Trichloro(2-phenylethyl)silane],91.00 °C
18,CO[Si](OC)(c1ccccc1)c1ccccc1 [Diphenyldimethoxysilane],121.00 °C
19,C[Si](C)(C)OC1=CCCC1 [(Cyclopentenyloxy)trimethylsilane],38.00 °C
20,CCN(CC)[Si](C)(C)N(CC)CC [Bis(diethylamino)dimethylsilane],35.00 °C
21,CO[Si](CCCNCCN)(OC)OC [Aminoethylaminopropyltrimethoxysilane],96.00 °C
22,C[Si]1(C)O[Si](C)(C)O[Si](C)(C)O[Si](C)(C)O[Si](C)(C)O[Si](C)(C)O1 [Dodecamethylcyclohexasiloxane],93.00 °C
23,CC[Si](CC)(CC)O[Si](CC)(CC)CC [Hexaethyldisiloxane],76.00 °C
